Test results published in patent US10532980B2, “N-methyl pyrazoles” (Prosetta Antiviral, Inc., priority 2015, dated 2020).

System: Influenza A virus (A/WSN/1933(H1N1))
Assay: microbe, parasite or virus in culture
Assay type: cell-based
Conditions: MDCK, 24 h with compound, then 2 h drug-free medium

In the case of `COc1c(Br)cccc1CNC(=O)c1cc(C2CC2)nn1C` [Compound 18, N-(3-bromo-2-methoxybenzyl)-3-cyclopropyl-1-methyl-1H-pyrazole-5-carboxamide], the EC90 is reported as 1500 nM.

Work on `CCOc1ccc(CNC(=O)c2cc(C(C)(C)C)nn2C)cc1Br` [Compound 16, N-(3-bromo-4-ethoxybenzyl)-3-(tert-butyl)-1-methyl-1H-pyrazole-5-carboxamide] yielded an EC90 of 1000 nM.

Compound `Cn1nc(C(C)(C)C)cc1C(=O)NCc1cccc(OC(F)(F)F)c1O` [Compound 34, 3-(tert-butyl)-N-(2-hydroxy-3-(trifluoromethoxy)benzyl)-1-methyl-1H-pyrazole-5-carboxamide] has an EC90 of 1200 nM.

In the case of `COc1c(CNC(=O)c2cc(C(C)(C)C)nn2C)cccc1OC(F)(F)F` [Compound 35, 3-(tert-butyl)-N-(2-methoxy-3-(trifluoromethoxy)benzyl)-1-methyl-1H-pyrazole-5-carboxamide], the EC90 is reported as 200 nM.

Compound `CCCOc1c(Cl)cc(CNC(=O)c2cc(C(C)C)nn2C)cc1OC` [Compound 42, N-(3-chloro-4-propoxy-5-methoxybenzyl)-3-isopropyl-1-methyl-1H-pyrazole-5-carboxamide] has an EC90 of 200 nM.

In the case of `CCCOc1c(CNC(=O)c2cc(C3CC3)nn2C)cccc1OC` [Compound 33, 3-cyclopropyl-N-(3-methoxy-2-propoxybenzyl)-1-methyl-1H-pyrazole-5-carboxamide], the EC90 is reported as 1500 nM.

`Cn1nc(C2CC2)cc1C(=O)NCc1cccc(C(F)(F)F)c1F` [Compound 1, 3-cyclopropyl-N-(2-fluoro-3-(trifluoromethyl)benzyl)-1-methyl-1H-pyrazole-5-carboxamide] was tested, and the EC90 was 400 nM.

In the case of `COc1cc(CNC(=O)c2cc(C(C)(C)C)nn2C)ccc1C` [Compound 27, 3-(tert-butyl)-N-(3-methoxy-4-methylbenzyl)-1-methyl-1H-pyrazole-5-carboxamide], the EC90 is reported as 1500 nM.

Work on `Cc1ccc(CNC(=O)c2cc(C(C)(C)C)nn2C)cc1Cl` [Compound 11, 3-(tert-butyl)-N-(3-chloro-4-methylbenzyl)-1-methyl-1H-pyrazole-5-carboxamide] yielded an EC90 of 1500 nM.

`Cn1nc(C2CC2)cc1C(=O)NCc1cccc(OC(F)(F)F)c1F` [Compound 8, 3-cyclopropyl-N-(2-fluoro-3-(trifluoromethoxy)benzyl)-1-methyl-1H-pyrazole-5-carboxamide] showed an EC90 of 1500 nM.

For `Cn1nc(C2CC2)cc1C(=O)NCc1cccc(C(F)(F)F)c1Cl` [Compound 3, N-(2-chloro-3-(trifluoromethyl)benzyl)-3-cyclopropyl-1-methyl-1H-pyrazole-5-carboxamide], the EC90 was 1100 nM.

For `COc1cccc(CNC(=O)c2cc(C(C)C)nn2C)c1C` [Compound 29, 3-isopropyl-N-(3-methoxy-2-methylbenzyl)-1-methyl-1H-pyrazole-5-carboxamide], the EC90 was 1500 nM.

`CC(C)c1cc(C(=O)NCc2cccc(C(F)(F)F)c2Cl)n(C)n1` [Compound 4, N-(2-chloro-3-(trifluoromethyl)benzyl)-3-isopropyl-1-methyl-1H-pyrazole-5-carboxamide] was tested, and the EC90 was 100 nM.

With `CCOc1c(F)cc(CNC(=O)c2cc(C3CC3)nn2C)cc1Cl` [Compound 43, N-(3-chloro-4-ethoxy-5-fluorobenzyl)-3-cyclopropyl-1-methyl-1H-pyrazole-5-carboxamide] the EC90 was 400 nM.

Work on `COc1c(CNC(=O)c2cc(C3CC3)nn2C)cccc1C(F)(F)F` [Compound 24, 3-cyclopropyl-N-(2-methoxy-3-(trifluoromethyl)benzyl)-1-methyl-1H-pyrazole-5-carboxamide] yielded an EC90 of 200 nM.

For `COc1cccc(CNC(=O)c2cc(C(C)C)nn2C)c1OC` [Compound 32, N-(2,3-dimethoxybenzyl)-3-isopropyl-1-methyl-1H-pyrazole-5-carboxamide], the EC90 was 1000 nM.

`Cn1nc(C(C)(C)C)cc1C(=O)NCc1cc(Cl)c2c(c1)OCCCO2` [Compound 45, 3-(tert-butyl)-N-((9-chloro-3,4-dihydro-2H-benzo[b][1,4]dioxepin-7-yl)methyl)-1-methyl-1H-pyrazole-5-carboxamide] was tested, and the EC90 was 1000 nM.

Work on `COc1ccc(F)c(CNC(=O)c2cc(C(C)(C)C)nn2C)c1OC` [Compound 46, 3-(tert-butyl)-N-(6-fluoro-2,3-dimethoxybenzyl)-1-methyl-1H-pyrazole-5-carboxamide] yielded an EC90 of 1000 nM.

Work on `COc1cc(CNC(=O)c2cc(C(C)(C)C)nn2C)ccc1Cl` [Compound 5, 3-(tert-butyl)-N-(4-chloro-3-methoxybenzyl)-1-methyl-1H-pyrazole-5-carboxamide] yielded an EC90 of 1500 nM.

Work on `CC(C)c1cc(C(=O)NCc2cccc(C(F)(F)F)c2F)n(C)n1` [Compound 2, N-(2 fluoro-3-(trifluoromethyl)benzyl)-3-isopropyl-1-methyl-1H pyrazole-5-carboxamide] yielded an EC90 of 100 nM.

In the case of `COc1c(CNC(=O)c2cc(C3CC3)nn2C)cccc1OCC1CCCC1` [Compound 39, N-(3-(cyclopentylmethoxy)-2-methoxybenzyl)-3-cyclopropyl-1-methyl-1H-pyrazole-5-carboxamide], the EC90 is reported as 100 nM.

Compound `COc1cccc(CNC(=O)c2cc(C(C)(C)C)nn2C)c1O` [Compound 31, 3-(tert-butyl)-N-(2-hydroxy-3-methoxybenzyl)-1-methyl-1H-pyrazole-5-carboxamide] has an EC90 of 1000 nM.

`Cn1nc(C2CC2)cc1C(=O)NCc1ccc(OCC2CC2)c(Cl)c1` [Compound 14, N-(3-chloro-4-(cyclopropylmethoxy)benzyl)-3-cyclopropyl-1-methyl-1H-pyrazole-5-carboxamide] showed an EC90 of 400 nM.

Compound `Cc1cccc(CNC(=O)c2cc(C3CC3)nn2C)c1C` [Compound 20, 3-cyclopropyl-N-(2,3-dimethylbenzyl)-1-methyl-1H-pyrazole-5-carboxamide] has an EC90 of 1500 nM.

For `Cn1nc(C2CC2)cc1C(=O)NCc1cccc(OCC2CC2)c1F` [Compound 10, 3-cyclopropyl-N-(3-(cyclopropylmethoxy)-2-fluorobenzyl)-1-methyl-1H-pyrazole-5-carboxamide], the EC90 was 100 nM.

For `COc1cccc(CNC(=O)c2cc(C3CC3)nn2C)c1C` [Compound 28, 3-cyclopropyl-N-(3-methoxy-2-methylbenzyl)-1-methyl-1H-pyrazole-5-carboxamide], the EC90 was 1500 nM.

In the case of `Cc1cc(CNC(=O)c2cc(C(C)C)nn2C)cc(C)c1OC(F)F` [Compound 40, N-(4-(difluoromethoxy)-3,5-dimethylbenzyl)-3-isopropyl-1-methyl-1H-pyrazole-5-carboxamide], the EC90 is reported as 400 nM.

With `Cn1nc(C(C)(C)C)cc1C(=O)NCc1cccc(OC(F)(F)F)c1F` [Compound 7, 3-(tert-butyl)-N-(2-fluoro-3-(trifluoromethoxy)benzyl)-1-methyl-1H-pyrazole-5-carboxamide] the EC90 was 1800 nM.

Work on `COc1cc(CNC(=O)c2cc(C3CC3)nn2C)ccc1Cl` [Compound 6, N-(4-chloro-3-methoxybenzyl)-3-cyclopropyl-1-methyl-1H-pyrazole-5-carboxamide] yielded an EC90 of 1500 nM.

With `CCOc1c(Br)cc(CNC(=O)c2cc(C3CC3)nn2C)cc1OC` [Compound 41, N-(3-bromo-4-ethoxy-5-methoxybenzyl)-3-cyclopropyl-1-methyl-1H-pyrazole-5-carboxamide] the EC90 was 400 nM.

`CCOc1cccc(CNC(=O)c2cc(C(C)(C)C)nn2C)c1OC(F)F` [Compound 37, 3-(tert-butyl)-N-(2-(difluoromethoxy)-3-ethoxybenzyl)-1-methyl-1H-pyrazole-5-carboxamide] gave an EC90 of 100 nM.

`CCOc1cccc(CNC(=O)c2cc(C3CC3)nn2C)c1OC(F)F` [Compound 38, 3-cyclopropyl-N-(2-(difluoromethoxy)-3-ethoxybenzyl)-1-methyl-1H-pyrazole-5-carboxamide] was tested, and the EC90 was 100 nM.

`CC(C)c1cc(C(=O)NCc2ccc(OCC3CC3)c(Cl)c2)n(C)n1` [Compound 15, N-(3-chloro-4-(cyclopropylmethoxy)benzyl)-3-isopropyl-1-methyl-1H-pyrazole-5-carboxamide] showed an EC90 of 400 nM.

With `CCCOc1ccc(CNC(=O)c2cc(C(C)C)nn2C)cc1Cl` [Compound 13, N-(3-chloro-4-propoxybenzyl)-3-isopropyl-1-methyl-1H-pyrazole-5-carboxamide] the EC90 was 400 nM.

`CCOc1ccc(CNC(=O)c2cc(C(C)C)nn2C)cc1Br` [Compound 17, N-(3-bromo-4-ethoxybenzyl)-3-isopropyl-1-methyl-1H-pyrazole-5-carboxamide] was tested, and the EC90 was 400 nM.

Work on `COc1c(CNC(=O)c2cc(C3CC3)nn2C)cccc1OC(F)(F)F` [Compound 36, 3-cyclopropyl-N-(2-methoxy-3-(trifluoromethoxy)benzyl)-1-methyl-1H-pyrazole-5-carboxamide] yielded an EC90 of 100 nM.

Compound `CCOc1cc(F)c(CNC(=O)c2cc(C3CC3)nn2C)cc1Cl` [Compound 44, N-(5-chloro-4-ethoxy-2-fluorobenzyl)-3-cyclopropyl-1-methyl-1H-pyrazole-5-carboxamide] has an EC90 of 400 nM.

`COc1ccc(CNC(=O)c2cc(C3CC3)nn2C)cc1C(F)(F)F` [Compound 26, 3-cyclopropyl-N-(4-methoxy-3-(trifluoromethyl)benzyl)-1-methyl-1H-pyrazole-5-carboxamide] was tested, and the EC90 was 800 nM.

Compound `Cc1c(CNC(=O)c2cc(C3CC3)nn2C)cccc1C(F)(F)F` [Compound 22, 3-cyclopropyl-1-methyl-N-(2-methyl-3-(trifluoromethyl)benzyl)-1H-pyrazole-5-carboxamide] has an EC90 of 300 nM.

`COc1ccc(CNC(=O)c2cc(C(C)(C)C)nn2C)cc1Cl` [Compound 12, 3-(tert-butyl)-N-(3-chloro-4-methoxybenzyl)-1-methyl-1H-pyrazole-5-carboxamide] gave an EC90 of 1800 nM.

With `COc1c(CNC(=O)c2cc(C(C)C)nn2C)cccc1C(F)(F)F` [Compound 25, 3-isopropyl-N-(2-methoxy-3-(trifluoromethyl)benzyl)-1-methyl-1H-pyrazole-5-carboxamide] the EC90 was 400 nM.

With `CC(C)c1cc(C(=O)NCc2cccc(OC(F)(F)F)c2F)n(C)n1` [Compound 9, N-(2-fluoro-3-(trifluoromethoxy)benzyl)-3-isopropyl-1-methyl-1H-pyrazole-5-carboxamide] the EC90 was 400 nM.

Work on `Cc1cccc(CNC(=O)c2cc(C3CC3)nn2C)c1OC(F)F` [Compound 21, 3-cyclopropyl-N-(2-(difluoromethoxy)-3-methylbenzyl)-1-methyl-1H-pyrazole-5-carboxamide] yielded an EC90 of 2000 nM.
